# Measurements reported in patent US12410164B2, “Heterocyclic compounds and medical use thereof” (FONDAZIONE TELETHON, priority 2018, dated 2025).
# Biological target: F508del-CFTR (Homo sapiens, UniProt P13569, DEL508-508)
# Assay: HS-YFP kinetic fluorescence (iodide quenching rate) assay in CFBE41o− cells
# Type: cell-based
# Set-up: expressed in transfected cells; host or cells: CFBE41o- cells with expression of F508del-CFTR and HS-YFP (generated as in Sondo et al. 2011)
# Settings: for AI (%) additivity index / AI additivity index: compound at 10 μM plus VX-809; for structure-activity comparison of corrector potency/activity: relative to the analogue
# Procedure, shortened: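 CFBE41o- cells co-expressing F508del-CFTR and HS-YFP, treated 24 h with compound (0.1-0.2% DMSO), then stimulated with 20 μM forskolin plus 50 μM genistein. Fluorescence was read for 14 s during NaI injection. Background-subtracted, normalized traces were fitted exponentially to give maximum quenching rate (QR).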
# [1] = Table 1, (QRTOT − QRVX)/QRVX, HS-YFP assay
# F508del-CFTR, sequence (P13569 with tags, fused parts or gaps DEL508-508): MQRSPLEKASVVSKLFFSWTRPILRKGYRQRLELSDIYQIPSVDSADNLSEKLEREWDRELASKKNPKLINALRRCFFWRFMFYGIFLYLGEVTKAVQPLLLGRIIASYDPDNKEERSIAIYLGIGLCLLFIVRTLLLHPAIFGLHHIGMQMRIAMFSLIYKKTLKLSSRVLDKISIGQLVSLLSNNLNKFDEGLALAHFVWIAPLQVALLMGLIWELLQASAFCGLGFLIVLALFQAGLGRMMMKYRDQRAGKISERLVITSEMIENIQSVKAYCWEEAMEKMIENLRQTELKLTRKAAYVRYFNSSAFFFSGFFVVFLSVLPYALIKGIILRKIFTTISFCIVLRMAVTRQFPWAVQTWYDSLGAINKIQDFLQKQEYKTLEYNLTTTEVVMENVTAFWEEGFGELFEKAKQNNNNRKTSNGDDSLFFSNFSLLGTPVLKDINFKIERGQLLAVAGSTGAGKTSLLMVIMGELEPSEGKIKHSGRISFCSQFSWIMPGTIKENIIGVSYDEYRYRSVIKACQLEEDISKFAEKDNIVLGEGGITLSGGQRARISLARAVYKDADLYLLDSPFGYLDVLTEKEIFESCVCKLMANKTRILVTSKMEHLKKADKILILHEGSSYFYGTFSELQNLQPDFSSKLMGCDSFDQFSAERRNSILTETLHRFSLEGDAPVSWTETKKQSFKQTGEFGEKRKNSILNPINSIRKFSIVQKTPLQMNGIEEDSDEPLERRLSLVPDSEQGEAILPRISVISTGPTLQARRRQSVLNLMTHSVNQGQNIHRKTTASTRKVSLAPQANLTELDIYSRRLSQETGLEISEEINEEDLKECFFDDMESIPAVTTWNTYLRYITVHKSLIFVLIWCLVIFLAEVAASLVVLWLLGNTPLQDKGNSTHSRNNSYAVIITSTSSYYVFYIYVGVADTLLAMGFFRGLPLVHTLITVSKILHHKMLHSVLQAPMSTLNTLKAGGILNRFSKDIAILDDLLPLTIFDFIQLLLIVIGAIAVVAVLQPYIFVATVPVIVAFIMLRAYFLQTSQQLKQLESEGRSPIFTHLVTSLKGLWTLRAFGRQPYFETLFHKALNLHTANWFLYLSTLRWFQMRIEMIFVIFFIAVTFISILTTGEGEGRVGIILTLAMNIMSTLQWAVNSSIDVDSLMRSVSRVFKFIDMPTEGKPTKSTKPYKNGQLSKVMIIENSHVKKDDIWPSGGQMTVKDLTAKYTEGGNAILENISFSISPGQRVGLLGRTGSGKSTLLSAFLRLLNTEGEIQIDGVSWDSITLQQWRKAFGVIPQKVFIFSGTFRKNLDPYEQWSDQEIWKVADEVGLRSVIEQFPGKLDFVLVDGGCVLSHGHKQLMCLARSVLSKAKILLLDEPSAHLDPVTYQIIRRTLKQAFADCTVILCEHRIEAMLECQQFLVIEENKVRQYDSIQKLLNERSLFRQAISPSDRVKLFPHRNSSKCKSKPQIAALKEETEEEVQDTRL
Compound,AI (%) additivity index [1] [%],further results
"CC(C)OC(=O)c1c(Br)c2c(n1CC1CC1)-c1[nH]c(=O)c(S(=O)(=O)c3ccccc3)cc1CC2 [PP106, Propan-2-yl 7-(benzenesulfonyl)-3-bromo-1-(cyclopropylmethyl)-8-oxo-4,5,8,9-tetrahydro-1H-pyrrolo[3,2-h]quinoline-2-carboxylate]",277,
"CCOC(=O)c1cc2c(n1Cc1ccc(C(F)(F)F)cc1)-c1[nH]c(=O)c(S(=O)(=O)c3ccccc3)cc1CC2 [PP070, Ethyl 7-(benzenesulfonyl)-8-oxo-1-{[4-(trifluoromethyl)phenyl]methyl}-4,5,8,9-tetrahydro-1H-pyrrolo[3,2-h]quinoline-2-carboxylate]",101,
"CCOC(=O)c1c(Br)c2c(n1Cc1cccc(C)c1)-c1nc(N)ncc1CC2 [SVQ4, Ethyl 2-amino-7-bromo-9-[(3-methylphenyl)methyl]-6,9-dihydro-5H-pyrrolo[3,2-h]quinazoline-8-carboxylate]",,"AI additivity index (Table 3, (QRTOT-QRVX)/QRVX): 4%"
"CCOC(=O)c1cc2c(n1Cc1ccc(C)cc1)-c1[nH]c(=O)c(S(=O)(=O)c3ccc(C)cc3)cc1CC2 [PP023, Ethyl 7-(4-methylbenzene-1-sulfonyl)-1-[(4-methylphenyl)methyl]-8-oxo-4,5,8,9-tetrahydro-1H-pyrrolo[3,2-h]quinoline-2-carboxylate]",89,
"CC(C)OC(=O)c1c(Br)cc2n1CCCc1cc(S(=O)(=O)c3ccccc3)c(=O)[nH]c1-2 [QZN14, Propan-2-yl 3-(benzenesulfonyl)-10-bromo-2-oxo-1,5,6,7-tetrahydro-2H-pyrido[2,3-c]pyrrolo[1,2-a]azepine-9-carboxylate]",,"AI (%) additivity index (Table 4, (QRTOT − QRVX)/QRVX): 141%"
"CCOC(=O)c1nn(Cc2ccc(C)cc2)c2c1CCc1cc(S(=O)(=O)c3ccccc3)c(=O)[nH]c1-2 [PZ1, Ethyl 7-(benzenesulfonyl)-1-[(4-methylphenyl)methyl]-8-oxo-4,5,8,9-tetrahydro-1H-pyrazolo[4,3-h]quinoline-3-carboxylate]",,"AI (%) additivity index (Table 6, (QRTOT-QRVX)/QRVX): 88%"
"CCOC(=O)c1cc2c(n1CC1CC1)-c1[nH]c(=O)c(S(=O)(=O)c3ccccc3)cc1CC2 [PP064, Ethyl 7-(benzenesulfonyl)-1-(cyclopropylmethyl)-8-oxo-4,5,8,9-tetrahydro-1H-pyrrolo[3,2-h]quinoline-2-carboxylate]",235,
"CC(C)OC(=O)c1cc2c(n1Cc1ccc(F)cc1)-c1[nH]c(=O)c(S(=O)(=O)c3ccccc3)cc1CC2 [PP107, Propan-2-yl 7-(benzenesulfonyl)-1-[(4-fluorophenyl)methyl]-8-oxo-4,5,8,9-tetrahydro-1H-pyrrolo[3,2-h]quinoline-2-carboxylate]",335,
"CC(C)OC(=O)c1c(Br)cc2n1CCc1cc(S(=O)(=O)c3ccccc3)c(=O)[nH]c1-2 [QZN10, Propan-2-yl 3-(benzenesulfonyl)-9-bromo-2-oxo-1,2,5,6-tetrahydropyrrolo[1,2-h][1,7]naphthyridine-8-carboxylate]",,"AI (%) additivity index (Table 4, (QRTOT − QRVX)/QRVX): 101%"
"CCOC(=O)c1c(Br)c2ccc3cc(S(=O)(=O)c4ccccc4)c(=O)[nH]c3c2n1Cc1ccc(C)cc1 [13 (PP057), Ethyl 7-(benzenesulfonyl)-3-bromo-1-[(4-methylphenyl)methyl]-8-oxo-8,9-dihydro-1H-pyrrolo[3,2-h]quinoline-2-carboxylate]",,"AI additivity index (Table 1a, (QRTOT − QRVX)/QRVX): 272%; structure-activity comparison of corrector potency/activity: Increased activity"
"CCOC(=O)c1cc2c(n1Cc1ccccc1C)-c1[nH]c(=O)c(S(=O)(=O)c3ccccc3)cc1CC2 [PP015, Ethyl 1-(2-methylbenzyl)-8-oxo-7-(phenylsulfonyl)-4,5,8,9-tetrahydro-1H-pyrrolo[3,2-h]quinoline-2-carboxylate]",124,
"CCOC(=O)c1c2c(nn1Cc1ccc(C)c(C)c1)-c1[nH]c(=O)c(S(=O)(=O)c3ccccc3)cc1CC2 [PZ8, Ethyl 7-(benzenesulfonyl)-2-[(3,4-dimethylphenyl)methyl]-8-oxo-4,5,8,9-tetrahydro-2H-pyrazolo[4,3-h]quinoline-3-carboxylate]",,"AI (%) additivity index (Table 6, (QRTOT-QRVX)/QRVX): 21%"
"CCOC(=O)c1cc2c(n1Cc1ccc(C)cc1)-c1[nH]c(=O)c(S(C)(=O)=O)cc1CC2 [PP024, Ethyl 7-(metansulfonyl)-1-[(4-methylphenyl)methyl]-8-oxo-4,5,8,9-tetrahydro-1H-pyrrolo[3,2-h]quinoline-2-carboxylate]",11,
"CCOC(=O)c1cc2c(n1Cc1ccc(I)cc1)-c1[nH]c(=O)c(S(=O)(=O)c3ccccc3)cc1CC2 [PP062, Ethyl 7-(benzenesulfonyl)-1-[(4-iodophenyl)methyl]-8-oxo-4,5,8,9-tetrahydro-1H-pyrrolo[3,2-h]quinoline-2-carboxylate]",95,
"CCOC(=O)c1c(Br)c2c(n1Cc1ccc(C)cc1)-c1[nH]c(=O)c(S(C)(=O)=O)cc1CC2 [PP036, Ethyl 3-bromo-7-(metansulfonyl)-1-[(4-methylphenyl)methyl]-8-oxo-4,5,8,9-tetrahydro-1H-pyrrolo[3,2-h]quinoline-2-carboxylate]",23,

# Now from value to molecule, other results behind:
AI (%) additivity index [1] [%],Compound,further results
20,"Cc1cccc(Cn2c(C(=O)O)c(Br)c3c2-c2[nH]c(=O)c(S(=O)(=O)c4ccccc4)cc2CC3)c1 [PP081, 7-(Benzenesulfonyl)-3-bromo-1-[(3-methylphenyl)methyl]-8-oxo-4,5,8,9-tetrahydro-1H-pyrrolo[3,2-h]quinoline-2-carboxylic acid]",
99,"CC(C)NC(=O)c1c(Br)c2c(n1Cc1ccc(Br)cc1)-c1[nH]c(=O)c(S(=O)(=O)c3ccccc3)cc1CC2 [PP097, 7-(Benzenesulfonyl)-3-bromo-1-[(4-bromophenyl)methyl]-8-oxo-N-(propan-2-yl)-4,5,8,9-tetrahydro-1H-pyrrolo[3,2-h]quinoline-2-carboxamide]",
37,"Cc1ccc(Cn2c(C(=O)O)cc3c2-c2[nH]c(=O)c(S(=O)(=O)c4ccccc4)cc2CC3)cc1 [PP078, 7-(Benzenesulfonyl)-1-[(4-methylphenyl)methyl]-8-oxo-4,5,8,9-tetrahydro-1H-pyrrolo[3,2-h]quinoline-2-carboxylic acid]",
3,"CC(C)NC(=O)c1cc2c(n1Cc1ccc(Br)cc1)-c1[nH]c(=O)c(S(=O)(=O)c3ccccc3)cc1CC2 [PP096, 7-(Benzenesulfonyl)-1-[(4-bromophenyl)methyl]-8-oxo-N-(propan-2-yl)-4,5,8,9-tetrahydro-1H-pyrrolo[3,2-h]quinoline-2-carboxamide]",
47,"Cc1ccc(Cn2c(C(=O)O)cc3c2-c2[nH]c(=O)c(S(=O)(=O)c4ccccc4)cc2CC3)cc1C [PP094, 7-(Benzenesulfonyl)-1-[(3,4-dimethylphenyl)methyl]-8-oxo-4,5,8,9-tetrahydro-1H-pyrrolo[3,2-h]quinoline-2-carboxylic acid]",
29,"COC(=O)c1cc2c(n1Cc1ccc(C)cc1)-c1[nH]c(=O)c(S(=O)(=O)c3ccccc3)cc1CC2 [PP019, Methyl 1-(4-methylbenzyl)-8-oxo-7-(phenylsulfonyl)-4,5,8,9-tetrahydro-1H-pyrrolo[3,2-h]quinoline-2-carboxylate]",
31,"Cc1cccc(Cn2c(C(N)=O)cc3c2-c2[nH]c(=O)c(S(=O)(=O)c4ccccc4)cc2CC3)c1 [PP082, 7-(Benzenesulfonyl)-1-[(3-methylphenyl)methyl]-8-oxo-4,5,8,9-tetrahydro-1H-pyrrolo[3,2-h]quinoline-2-carboxamide]",
284,"Cc1cccc(Cn2c(C(=O)OC(C)C)cc3c2-c2[nH]c(=O)c(S(=O)(=O)c4ccccc4)cc2CC3)c1 [PP103, Propan-2-yl 7-(benzenesulfonyl)-1-[(3-methylphenyl)methyl]-8-oxo-4,5,8,9-tetrahydro-1H-pyrrolo[3,2-h]quinoline-2-carboxylate]",
52,"Cc1cccc(Cn2c(C(=O)NC3CC3)cc3c2-c2[nH]c(=O)c(S(=O)(=O)c4ccccc4)cc2CC3)c1 [PP092, 7-(Benzenesulfonyl)-N-cyclopropyl-1-[(3-methylphenyl)methyl]-8-oxo-4,5,8,9-tetrahydro-1H-pyrrolo[3,2-h]quinoline-2-carboxamide]",
35,"CCOC(=O)c1c(Br)c2c(n1Cc1ccc(C(F)(F)F)cc1)-c1[nH]c(=O)c(S(=O)(=O)c3ccccc3)cc1CC2 [PP071, Ethyl 7-(benzenesulfonyl)-3-bromo-8-oxo-1-{[4-(trifluoromethyl)phenyl]methyl}-4,5,8,9-tetrahydro-1H-pyrrolo[3,2-h]quinoline-2-carboxylate]",
46,"CCOC(=O)c1c(Br)c2c(n1Cc1ccc(Cl)cc1)-c1[nH]c(=O)c(S(=O)(=O)c3ccccc3)cc1CC2 [PP029, Ethyl 3-bromo 1-(4-chlorobenzyl)-8-oxo-7-(phenylsulfonyl)-4,5,8,9-tetrahydro-1H-pyrrolo[3,2-h]quinoline-2-carboxylate]",
150,CCOC(=O)c1cc2c(n1Cc1ccccc1)-c1[nH]c(=O)c(S(=O)(=O)c3ccccc3)cc1CC2 [PP011],structure-activity comparison of corrector potency/activity: causes a reduction in activity
442,"CCOC(=O)c1c(Br)c2c(n1Cc1ccc(F)cc1)-c1[nH]c(=O)c(S(=O)(=O)c3ccccc3)cc1CC2 [PP073, Ethyl 7-(benzenesulfonyl)-3-bromo-1-[(4-fluorophenyl)methyl]-8-oxo-4,5,8,9-tetrahydro-1H-pyrrolo[3,2-h]quinoline-2-carboxylate]",
